Results on 18 compounds are retold here after patent publication US7737139B2, “Sulfonic acids, their derivatives and pharmaceutical compositions containing them” (Dompe PHA.R.MA S.p.A., priority 2003, dated 2010).

The term inhibition denotes the percentage by which the read-out fell short of the control. Low readings indicate a weak effect, high ones a strong effect.

Each structure is given as a SMILES string. Counter-ions that a name gives are not always drawn.

One assay relates to human PMNs. The experiment in a line: IL-8 induced human PMN chemotaxis assay. The conditions noted are these: compounds marked * tested at c = 10^−7; human PMNs chemotaxis induced by IL-8 (100 ng/mL). In kind it is cell-based.
`CNS(=O)(=O)C(C)c1ccc(CC(C)C)cc1` (racemic) [Compound 43, (±)-1-(4-isobutylphenyl)ethane-N-methyl sulfonamide] registered an inhibition at 0.1 µM of 36 ± 15%. Compound `CNS(=O)(=O)/C=C/c1ccc(CC(C)C)cc1` [Compound 22, E-2-(4-isobutylphenyl)ethene-N-methyl sulfonamide] came in with an inhibition at 0.1 µM of 41 ± 9%. Same read-out and setting: as for `CS(=O)(=O)Nc1ccc(/C=C/S(N)(=O)=O)cc1` [Compound 17, E-2-[4-(methanesulfonylamino)phenyl] ethenesulfonamide], the figure is 41 ± 17%.

A further assay concerns human PMNs. The experiment in a line: IL-8 induced human PMN chemotaxis assay. The class given is cell-based. To be noted: c = 10^−8 M; human PMNs chemotaxis induced by IL-8 (100 ng/mL). The protocol:
The compounds of formula (I) were evaluated in vitro for their ability to inhibit chemotaxis of polymorphonucleate leukocytes (hereinafter referred to as PMNs) and monocytes induced by the fractions of IL-8 and GRO-α. For this purpose, in order to isolate the PMNs from heparinized human blood, taken from healthy adult volunteers, mononucleates were removed by means of sedimentation on dextran (according to the procedure disclosed by W. J. Ming et al, J. Immunol., 138, 1469, 1987) and red blood cells by a hypotonic solution. The cell vitality was calculated by exclusion with Trypan blue, whilst the ratio of the circulating polymorphonucleates was estimated on the cytocentrifugate after staining with Diff Quick.
Human recombinant IL-8 (Pepro Tech) was used as stimulating agents in the chemotaxis experiments, giving practically identical results: the lyophilized protein was dissolved in a volume of HBSS containing 0.2% bovin serum albumin (BSA) so thus to obtain a stock solution having a concentration of 10^−5 M to be diluted in HBSS to a concentration of 10^−9 M, for the chemotaxis assays.
During the chemotaxis assay (according to W. Falket et al., J. Immunol. Methods, 33, 239, 1980) PVP-free filters with a porosity of 5 μm and microchambers suitable for replication were used.
The compounds of formula (I) were evaluated at a concentration ranging between 10^−6 and 10^−10 M; for this purpose they were added, at the same concentration, both to the […] of the microchamber. Evaluation of the ability of the compounds of the invention of formula I to inhibit IL-8-induced chemotaxis of human monocytes was carried out according to the method disclosed by Van Damme J. et al. (Eur. J. Immunol., 19, 2367, 1989).
Biological results of some representative compounds in the IL-8 induced PMN chemotaxis test are reported in table II (inhibition data, C=10^−8 M).
Compound `CC(=O)NS(=O)(=O)C(C)c1ccc(CC(C)C)cc1` (racemic) [Compound 47, (±)-1-(4-isobutylphenyl)ethane-N-acetyl sulfonamide] came in with an inhibition at 0.01 µM of 40 ± 17%. For `CC(=O)c1ccc(CS(=O)(=O)O)n1C` [Compound 7, (1-methyl-5-acetylpyrrolyl)-1-methanesulfonic acid sodium salt], the inhibition at 0.01 µM came to 35 ± 2%.

On to `C/C(=C\S(N)(=O)=O)c1ccc(CC(C)C)cc1` [Compound 50, E-2-(4-isobutylphenyl)-2-methyl-ethenesulfonamide], for which the inhibition at 0.01 µM amounted to 32 ± 1%. On the same count and under the same terms, as for `CC(C)Cc1ccc(/C=C/S(N)(=O)=O)cc1` [Compound 14, E-2-(4-isobutylphenyl) ethenesulfonamide], the figure is 41 ± 17%; as for `CC(C)C(=O)c1ccc(CS(N)(=O)=O)n1C` [Compound 30, (1-methyl-5-isobutirrylpyrrolyl)-1-methanesulfonamide], 50 ± 1%. Consider `CC(C)Cc1ccc(/C=C/S(=O)(=O)O)cc1` [Compound 10, E-2-(4-isobutylphenyl)ethenesulfonic acid sodium salt], for which the inhibition at 0.01 µM came out at 45 ± 4%. For the compound `CC(=O)c1ccc(CS(N)(=O)=O)n1C` [Compound 31, (1-methyl-5-acetylpyrrolyl)-1-methanesulfonamide], testing at 0.01 µM gave an inhibition of 39 ± 4%. Same read-out and setting: as for `CN(C)CCCNS(=O)(=O)/C=C/c1ccc(NS(C)(=O)=O)cc1` [Compound 21, E-2-[4-(methanesulfonylamino)phenyl] ethene-(N,N-dimethylaminopropyl) sulfonamide], the figure is 31 ± 6%; as for `NS(=O)(=O)/C=C/c1cccc(C(=O)c2ccccc2)c1` [Compound 15, E-2-(3-benzoylphenyl) ethenesulfonamide], 66 ± 10%; as for `CN(C)CCCNS(=O)(=O)/C=C/c1ccc(OS(=O)(=O)C(F)(F)F)cc1` [Compound 20, E-2-[4-(trifluoromethanesulfonyloxy)phenyl]ethene-(N,N-dimethylaminopropyl)sulfonamide], 60 ± 1%. The same measure, in the same setting: the result for `CC(C)Cc1ccc([C@H](C)S(=O)(=O)O)cc1` [Compound 2, (+)-1-(4-isobutylphenyl) ethanesulfonic acid sodium salt] reads 35 ± 7%; that for `CC(c1cccc(C(=O)c2ccccc2)c1)S(=O)(=O)O` (racemic) [Compound 8, sodium salt], 65 ± 4%.

For the compound `CC(c1cccc(C(=O)c2ccccc2)c1)S(=O)(=O)NCCCN(C)C` (racemic) [Compound 36, (±)-1-(3-benzoylphenyl)ethane-N-(N,N-dimethylaminopropyl) sulfonamide], the inhibition at 0.01 µM stood at 49 ± 14%. Same read-out and setting: as for `CC(C)Cc1ccc(/C=C/S(=O)(=O)NCCCN(C)C)cc1` [Compound 18, E-2-(4-isobutylphenyl)ethene(N,N-dimethylaminopropyl) sulfonamide], the figure is 40 ± 1%; as for `CC(C)Cc1ccc([C@@H](C)S(=O)(=O)O)cc1` [Compound 1, (−)-1-(4-isobutylphenyl) ethanesulfonic acid sodium salt], 55 ± 7%.
